Results reported in the NIST ThermoML archive (doi:10.1016/j.jct.2004.04.004).

Assay: xn = mol fraction of the nth substance listed
Conditions: 101.3 kPa, Liquid

Cc1ccccc1C [1,2-dimethylbenzene] + C[S+](C)[O-]
Conditions	mass density [kg/m3]
293.15 K, x1 = 0.0858	1070.35
293.15 K, x1 = 0.1359	1054.5
293.15 K, x1 = 0.1957	1036.82
293.15 K, x1 = 0.2589	1019.38
293.15 K, x1 = 0.3283	1001.63
293.15 K, x1 = 0.3947	985.85
293.15 K, x1 = 0.4732	968.58
293.15 K, x1 = 0.5482	953.27
293.15 K, x1 = 0.6132	940.87
293.15 K, x1 = 0.6648	931.53
293.15 K, x1 = 0.7329	919.84
293.15 K, x1 = 0.8012	908.78
293.15 K, x1 = 0.8732	897.78
293.15 K, x1 = 0.9198	891.02
303.15 K, x1 = 0.0923	1059.85
303.15 K, x1 = 0.153	1040.84
303.15 K, x1 = 0.229	1018.94
303.15 K, x1 = 0.3013	999.82
303.15 K, x1 = 0.3539	986.84
303.15 K, x1 = 0.439	967.38
303.15 K, x1 = 0.4938	955.72
303.15 K, x1 = 0.5539	943.64
303.15 K, x1 = 0.615	932.03
303.15 K, x1 = 0.6849	919.56
303.15 K, x1 = 0.7537	907.99
303.15 K, x1 = 0.8327	895.54
303.15 K, x1 = 0.9123	883.82
313.15 K, x1 = 0.0794	1055.53
313.15 K, x1 = 0.1246	1040.99
313.15 K, x1 = 0.1936	1020.26
313.15 K, x1 = 0.2638	1000.86
313.15 K, x1 = 0.3248	985.24
313.15 K, x1 = 0.4058	966.09
313.15 K, x1 = 0.5732	931.27
313.15 K, x1 = 0.649	917.29
313.15 K, x1 = 0.7044	907.66
313.15 K, x1 = 0.7724	896.49
313.15 K, x1 = 0.8355	886.69
313.15 K, x1 = 0.8943	878.03
313.15 K, x1 = 0.9234	873.9
323.15 K, x1 = 0.0833	1045.74
323.15 K, x1 = 0.1489	1024.89
323.15 K, x1 = 0.1948	1011.29
323.15 K, x1 = 0.2587	993.57
323.15 K, x1 = 0.3278	975.84
323.15 K, x1 = 0.4039	957.84
323.15 K, x1 = 0.4632	944.82
323.15 K, x1 = 0.5399	929.1
323.15 K, x1 = 0.6012	917.37
323.15 K, x1 = 0.664	906.05
323.15 K, x1 = 0.7576	890.35
323.15 K, x1 = 0.8148	881.37
323.15 K, x1 = 0.8833	871.21
323.15 K, x1 = 0.9347	863.97
333.15 K, x1 = 0.0795	1038.47
333.15 K, x1 = 0.1399	1019.08
333.15 K, x1 = 0.2048	999.81
333.15 K, x1 = 0.2598	984.62
333.15 K, x1 = 0.3189	969.38
333.15 K, x1 = 0.3832	953.94
333.15 K, x1 = 0.4539	938.16
333.15 K, x1 = 0.5138	925.7
333.15 K, x1 = 0.5822	912.36
333.15 K, x1 = 0.6427	901.28
333.15 K, x1 = 0.7038	890.71
333.15 K, x1 = 0.7638	880.89
333.15 K, x1 = 0.8247	871.45
333.15 K, x1 = 0.9138	858.53
343.15 K, x1 = 0.0698	1033.25
343.15 K, x1 = 0.1587	1004.79
343.15 K, x1 = 0.2184	987.38
343.15 K, x1 = 0.275	972.02
343.15 K, x1 = 0.3576	951.35
343.15 K, x1 = 0.4247	935.94
343.15 K, x1 = 0.4933	921.29
343.15 K, x1 = 0.5539	909.2
343.15 K, x1 = 0.6349	894.13
343.15 K, x1 = 0.7038	882.21
343.15 K, x1 = 0.7971	867.23
343.15 K, x1 = 0.8621	857.5
343.15 K, x1 = 0.9324	847.62
353.15 K, x1 = 0.0431	1034
353.15 K, x1 = 0.1383	1002.49
353.15 K, x1 = 0.2043	982.8
353.15 K, x1 = 0.2748	963.47
353.15 K, x1 = 0.3534	943.75
353.15 K, x1 = 0.4148	929.55
353.15 K, x1 = 0.4829	914.87
353.15 K, x1 = 0.5457	902.24
353.15 K, x1 = 0.6198	888.33
353.15 K, x1 = 0.6831	877.21
353.15 K, x1 = 0.7598	864.61
353.15 K, x1 = 0.8244	854.67
353.15 K, x1 = 0.8846	845.91
353.15 K, x1 = 0.9423	837.96

Cc1ccc(C)cc1 [1,4-dimethylbenzene] + C[S+](C)[O-]
Conditions	mass density [kg/m3]
293.15 K, x1 = 0.0599	1077
293.15 K, x1 = 0.1284	1052.94
293.15 K, x1 = 0.1944	1031.59
293.15 K, x1 = 0.2783	1006.68
293.15 K, x1 = 0.3589	984.83
293.15 K, x1 = 0.4385	965.03
293.15 K, x1 = 0.5032	950.09
293.15 K, x1 = 0.5539	939.03
293.15 K, x1 = 0.6235	924.72
293.15 K, x1 = 0.7023	909.62
293.15 K, x1 = 0.7635	898.63
293.15 K, x1 = 0.8243	888.27
293.15 K, x1 = 0.8831	878.73
293.15 K, x1 = 0.9327	871.04
303.15 K, x1 = 0.0632	1067.37
303.15 K, x1 = 0.1639	1032.58
303.15 K, x1 = 0.2343	1010.65
303.15 K, x1 = 0.2934	993.59
303.15 K, x1 = 0.3513	977.92
303.15 K, x1 = 0.425	959.33
303.15 K, x1 = 0.4892	944.29
303.15 K, x1 = 0.5633	928.09
303.15 K, x1 = 0.6398	912.58
303.15 K, x1 = 0.7135	898.68
303.15 K, x1 = 0.7624	889.95
303.15 K, x1 = 0.8243	879.44
303.15 K, x1 = 0.8609	873.48
303.15 K, x1 = 0.9244	863.55
313.15 K, x1 = 0.0662	1057.67
313.15 K, x1 = 0.1358	1033.11
313.15 K, x1 = 0.1942	1014.07
313.15 K, x1 = 0.2578	994.8
313.15 K, x1 = 0.3249	975.96
313.15 K, x1 = 0.3895	959.1
313.15 K, x1 = 0.4509	944.13
313.15 K, x1 = 0.5345	925.24
313.15 K, x1 = 0.6106	909.4
313.15 K, x1 = 0.6719	897.46
313.15 K, x1 = 0.754	882.52
313.15 K, x1 = 0.8358	868.7
313.15 K, x1 = 0.9235	854.92
323.15 K, x1 = 0.0573	1052.39
323.15 K, x1 = 0.1537	1018.34
323.15 K, x1 = 0.2359	992.38
323.15 K, x1 = 0.3131	970.2
323.15 K, x1 = 0.383	951.75
323.15 K, x1 = 0.4509	935.12
323.15 K, x1 = 0.5234	918.67
323.15 K, x1 = 0.5902	904.55
323.15 K, x1 = 0.6618	890.43
323.15 K, x1 = 0.7385	876.35
323.15 K, x1 = 0.8123	863.72
323.15 K, x1 = 0.8832	852.33
323.15 K, x1 = 0.9321	844.86
333.15 K, x1 = 0.0529	1045.49
333.15 K, x1 = 0.1248	1019.37
333.15 K, x1 = 0.1944	996.31
333.15 K, x1 = 0.265	974.86
333.15 K, x1 = 0.3398	954.01
333.15 K, x1 = 0.4014	938.13
333.15 K, x1 = 0.4624	923.43
333.15 K, x1 = 0.5137	911.8
333.15 K, x1 = 0.5823	897.2
333.15 K, x1 = 0.6582	882.18
333.15 K, x1 = 0.731	868.78
333.15 K, x1 = 0.8043	856.2
333.15 K, x1 = 0.8638	846.57
333.15 K, x1 = 0.9247	837.2
343.15 K, x1 = 0.0638	1032.77
343.15 K, x1 = 0.1398	1005.47
343.15 K, x1 = 0.2012	985.32
343.15 K, x1 = 0.275	963.03
343.15 K, x1 = 0.351	942.07
343.15 K, x1 = 0.4132	926.22
343.15 K, x1 = 0.4891	908.31
343.15 K, x1 = 0.5409	896.9
343.15 K, x1 = 0.6148	881.67
343.15 K, x1 = 0.6728	870.48
343.15 K, x1 = 0.7322	859.68
343.15 K, x1 = 0.813	845.91
343.15 K, x1 = 0.8732	836.29
343.15 K, x1 = 0.9322	827.33
353.15 K, x1 = 0.0609	1025.3
353.15 K, x1 = 0.1428	995.69
353.15 K, x1 = 0.218	971.2
353.15 K, x1 = 0.2843	951.45
353.15 K, x1 = 0.3598	930.79
353.15 K, x1 = 0.4241	914.57
353.15 K, x1 = 0.481	901.17
353.15 K, x1 = 0.5393	888.27
353.15 K, x1 = 0.6042	874.83
353.15 K, x1 = 0.6629	863.42
353.15 K, x1 = 0.7321	850.8
353.15 K, x1 = 0.7832	842
353.15 K, x1 = 0.833	833.83
353.15 K, x1 = 0.9128	821.46
